Test results: patent US20040076989A1, “Synaptic transmission assay” (priority 2000, published 2004)
Entries after “also recorded” stand apart in the source; their conditions may differ.

Tests used:
zif268 mRNA expression = test: zif268 mRNA assay (Northern blot) in cultured dissociated hippocampal neurons; type: cell-based; conditions: added to induction medium
Description: The peak in zif268 expression after 30 min established the optimal delay for mRNA-based assays. Similar optimisation of protein-based immunohistochemical assays indicates an optimum 2 h post-exposure delay.
Zif268 mRNA assays were carried out as in Example 2, with cells exposed to ACSF control, to induction medium, or to induction medium with the addition of […] (an inhibitor of MAPK kinase) (FIG. 15) or with the addition of a mixture of the calcium channel blocker cadmium and the glutamate receptor antagonists AP5 and CNQX (FIG. 16).

[1] = system: neuronal zif268 expression; test: zif268 immunocytochemical assay (zif268/NeuN double-labelled neurons) in dissociated hippocampal neuron culture; type: cell-based, Sprague-Dawley rat; conditions: added to induction medium, 0.2 μM each, 10 min exposure; listed as Carbachol
Description: Hippocampal neurons were prepared from late embryonic or 1st postnatal day Sprague-Dawley rates, and grown in dissociated cell culture in microtitre plates. After 7-21 days in vitro, serum-containing medium was replaced with serum-free medium for 24 h. This medium was then replaced with ACSF or with induction medium for 10 minutes; these solutions were then replaced with serum-free medium. After 1 hour, cells were fixed by replacement of serum-free medium with phosphate-buffered saline containing 4% paraformaldehyde. Immunolabelling was then carried out with rabbit antiserum against zif268 and mouse antibodies against the neuron-specific antigen NeuN. After washing, bound antibodies were visualised by incubation with Alexa488-labelled anti-rabbit IgG and Cy3-labelled anti-mouse IgG (FIG. 12 top).
An immunocytochemical assay was carried out as in Example 3, with cells exposed to ACSF, to induction medium, to induction medium with the addition of carbachol and isoproterenol (0.2 μM each) or to induction medium with the addition of carbachol only (0.2 μM).

| Compound | effect on chemically-induced zif268 mRNA expression (zif268 mRNA expression) | effect on chemically induced increase in neuronal zif268 immunoreactivity [1] |
| --- | --- | --- |
| COc1cccc(-c2cc(=O)c3ccccc3o2)c1N [PD98959] | significantly reduced; also recorded: inhibits | – |
| C[N+](C)(C)CCOC(N)=O [carbachol] | – | no effect |
